Series [1] has as its system Staphylococcus aureus DSM18827. As to the kind of experiment: Minimal inhibitory concentration (MIC) assay. The settings on record: B medium. It counts as cell-based.
Series [2] has as its system Staphylococcus aureus NCTC8325. As to the kind of experiment: Minimal inhibitory concentration (MIC) assay. It is filed as cell-based. Particulars: for MIC: Staphylococcus aureus NCTC8325, B medium. How it is done: Minimum inhibitory concentrations (MICs) represent the lowest concentration of sample that will inhibit the visible growth of a microorganism after overnight incubation, and was obtained by a 96 well plate-based assay (Thermo Scientific) with serial dilutions of the probes tested. […] Bacteria were diluted in fresh medium to a concentration of 10^5 CFU/mL. In the case of all other bacteria species tested, fresh media was inoculated 1/10000 and directly used for testing. Diluted bacterial cultures (99 μL) were added to various concentrations of probe (1 μL of the respective stock in DMSO). A growth control containing DMSO (1 μL) and cultivated medium (99 μL) and a sterile control containing fresh medium (100 μL) were run on every 96 well plate in triplicates. After incubation at 37° C. with gentle shaking (200 rpm) for 24 h, the dilution series was analysed for microbial growth, usually indicated by turbidity and/or a pellet of bacteria at the bottom of the well. The lowest concentration in the dilution series at which no growth of bacteria could be observed by eye was defined as the minimum inhibitory concentration (MIC) of the probe. MIC values were determined by three independent experiments with at least triplicate runs for each concentration. […] Both compounds were tested against various bacterial strains. […] The assay was performed as described above.

For series [3], the system named is Staphylococcus aureus Bk95395. As to the kind of experiment: Minimal inhibitory concentration (MIC) assay. It is filed as cell-based. Particulars: Staphylococcus aureus Bk95395 (clinical isolate); B medium.
The subject of series [4] is Staphylococcus aureus Bk97296. Description: Minimal inhibitory concentration (MIC) assay. It is filed as cell-based. Particulars: Staphylococcus aureus Bk97296 (clinical isolate); B medium.
Series [5] deals with Staphylococcus aureus IS050678. Description: Minimal inhibitory concentration (MIC) assay. It is filed as cell-based. Particulars: Staphylococcus aureus IS050678 (clinical isolate); B medium.
The subject of series [6] is Staphylococcus aureus VA417350. Description: Minimal inhibitory concentration (MIC) assay. It counts as cell-based. The settings on record: Staphylococcus aureus VA417350 (clinical isolate); B medium.
In series [7] the test system is Staphylococcus aureus VA402923. As to the kind of experiment: Minimal inhibitory concentration (MIC) assay. It is filed as cell-based. The settings on record: Staphylococcus aureus VA402923 (clinical isolate); B medium.
For series [8], the system named is Staphylococcus aureus VA412350. As to the kind of experiment: Minimal inhibitory concentration (MIC) assay. It is filed as cell-based. The settings on record: Staphylococcus aureus VA412350 (clinical isolate); B medium.
The test system of series [9] is Staphylococcus aureus VA409044. Description: Minimal inhibitory concentration (MIC) assay. It is filed as cell-based. The settings on record: Staphylococcus aureus VA409044 (clinical isolate); B medium.
Series [10] concerns Staphylococcus aureus VA402525. As to the kind of experiment: Minimal inhibitory concentration (MIC) assay. Particulars: Staphylococcus aureus VA402525 (clinical isolate); B medium. It is filed as cell-based.
Series [11] relates to Mycobacterium smegmatis mc^2 155. Description: Minimal inhibitory concentration (MIC) assay. It is filed as cell-based. Particulars: Mycolicibacterium smegmatis, MC^2155, LB medium.
A further series deals with Bacillus subtilis. Description: Minimal inhibitory concentration (MIC) assay. The settings on record: LB medium. It counts as cell-based.
Another series relates to Acinetobacter baumannii. Description: Minimal inhibitory concentration (MIC) assay. It counts as cell-based. The settings on record: B medium.
Another series deals with Pseudomonas aeruginosa. Description: Minimal inhibitory concentration (MIC) assay. Particulars: B medium. It is filed as cell-based.
In series [12] the test system is Enterobacter cloacae subsp. Cloacae. Description: Minimal inhibitory concentration (MIC) assay. The settings on record: B medium. It is filed as cell-based.
The next series is described as follows: Plasma stability assay. It is filed as in vitro ADME, mouse. Particulars: 10 μM, 37° C., up to 6 h (360 min), LC-MS. How it is done: The in vitro stability was tested by a LC-MS based method. Mouse plasma was purchased from biowest (mouse plasma w/lithium heparin, sterile filtered S2162-010) and used as a 1:1 dilution with potassium phosphate buffer (0.1 M, pH 7.4). Final assay concentration of DMSO from compound stocks was 1%. AV1, a β-lactone with known low plasma stability, was used as positive control at a concentration of 50 μM. The compound stability test in plasma was initiated by the addition of 10 μM compound of interest (50 μM in the case of AV1) to 250 μL of diluted mouse plasma at 37° C. Directly after compound addition the reaction mixture was shortly mixed by vortexing and the first sample of 25 μL was withdrawn (time point 0 min). Every sample was quenched immediately by the addition 30 μL of pre-chilled acetonitrile. The reaction mixture was incubated at 37° C. with gentle shaking at 600 rpm. At certain time points (5, 10, 20, 30, 60, 120, 240, 360 min) additional samples (25 μL) were taken for every test compound, quenched as described and stored at −20° C. […] Quantitative LC-MS analysis was performed by LCQ-Fleet Ion Trap Mass Spectrometer equipped with an APCI ion source and a DionexHPLC system using a Waters Xbridge BEH130 C18 column (5 μM 4.6×100 mm). […] Plasma stability was determined in three independent experiments.

In a further series the test system is S. aureus NCTC 8325. It is filed as cell-based.
In series [13] the test system is S. aureus NCTC 8325 persister cells. As to the kind of experiment: Persister cell assay II. It counts as cell-based. Particulars: TSB, with or without 30 μg/mL oxacillin; 20 h or 70 h; 2.4 μM PK/X17-1-150 or PK/X17-4-011, 24 μM sorafenib or PK/X17-2-011, 5 μg/mL ciprofloxacin. The protocol:
Persister cell assay II. Tryptic soy broth (50 mL in 250 mL culture flasks) was inoculated 1:1000 with overnight cultures of NCTC 8325 and grown at 37° C. and 200 rpm until an OD600 of 4 was reached or overnight (ON). Serial dilution were prepared and plated to determine the cell numbers in the inoculum. […]. […] After 20 h (A) or 70 h (B) of treatment, cells were harvested, washed two times with PBS (10000×g, 3 min), serially diluted and plated on agar plates for determination of surviving cell numbers.

Another series relates to S. aureus NCTC8325. Description: Analysis of S. aureus NCTC8325 secretome. Particulars: 0.5×MIC (PK/X17-1-150 0.15 μM, sorafenib 1.5 μM), 1.5 h.

SMILES strings stand for the structures. pIC50: −log10 of the molar value. In brackets after ≈: the same amount, converted by molar mass. Entries after “also recorded” stand apart in the source; their conditions may differ. Bounds are passed on as bounds.

`O=C(Nc1ccc2c(c1)OC(F)(F)O2)Nc1ccc(Cl)c(C(F)(F)F)c1` [Example 4, 1-(4-Chloro-3-(trifluoromethyl)phenyl)-3-(2,2-difluorobenzo[d][1,3]dioxol-5-yl)urea]: the MIC in series [1], in [2], in [3], in series [4], in series [5] and in series [6] was 0.3 µM (≈ 0.118 µg/mL) throughout. Besides, the MIC in series [7] came out at 0.3 µM (≈ 0.118 µg/mL); in series [8], 0.3 µM (≈ 0.118 µg/mL); in series [9] it was 0.3 µM (≈ 0.118 µg/mL); in [10], 0.3 µM (≈ 0.118 µg/mL); in series [11], 1 µM (≈ 0.395 µg/mL); against Bacillus subtilis it was 1 µM (≈ 0.395 µg/mL). In addition, the results for the MIC (with Acinetobacter baumannii; in the series with Pseudomonas aeruginosa; in [12]) were 10 µM (≈ 3.95 µg/mL), greater than 100 µM and greater than 100 µM, respectively. The pIC50 in series [2] (Staphylococcus aureus, NCTC8325, inhibition of bacterial growth of S. aureus NCTC 8325, obtained by MIC assay) is 6.52. Further, the “stability in mouse plasma” value in the series “Plasma stability assay” is “excellent stability in plasma for several hours”. Moreover, the “resistance development on serial passaging” value in the series with S. aureus NCTC 8325 (S. aureus NCTC 8325, subinhibitory levels, 27 days, listed as PK/X17-1-150) was “did not induce resistance; also recorded: no resistant development”. The “activity against S. aureus that developed resistance against sorafenib” value in the series on S. aureus NCTC 8325 (preliminary results) is listed as “still active”. The “viable persister cells (CFU/mL) vs DMSO control” value in series [13] is listed as “significant reduction of viable cells”. In addition, the “secretome (secreted proteins) vs DMSO” value with S. aureus NCTC8325 is recorded as “Essential cell wall biosynthesis proteins are among the processed proteins; also recorded: strong increase of extracellular proteins”.
On to `CNC(=O)c1cc(Oc2ccc(NC(=O)Nc3ccc(Cl)c(C(F)(F)F)c3)cc2)ccn1` [Sorafenib, reference compound], for which the MIC in series [1] is 3 µM (≈ 1.39 µg/mL); in [2] it was 3 µM (≈ 1.39 µg/mL); in series [3] it was 5 µM (≈ 2.32 µg/mL); in series [4], 5 µM (≈ 2.32 µg/mL); in series [5], 5 µM (≈ 2.32 µg/mL); in series [6], 5 µM (≈ 2.32 µg/mL). Moreover, the MIC in [7] was found to be 5 µM (≈ 2.32 µg/mL); in series [8] it was 5 µM (≈ 2.32 µg/mL); in [9] it was 3 µM (≈ 1.39 µg/mL); in series [10], 5 µM (≈ 2.32 µg/mL); in [11], 6 µM (≈ 2.79 µg/mL); in the series on Bacillus subtilis, 5 µM (≈ 2.32 µg/mL). Also, the MIC (with Acinetobacter baumannii; against Pseudomonas aeruginosa; in series [12]) was greater than 100 µM in each case. The “stability in mouse plasma” value in “Plasma stability assay” was “excellent stability in plasma for several hours”. Moreover, the “first signs of lower sensitivity” value in the series on S. aureus NCTC 8325 (serial passaging of S. aureus) is reported as no more than 5 days. For the same compound, the “increase of minimal inhibitory concentration (factor)” value in the series with S. aureus NCTC 8325 (serial passaging, within the first 10 days) turned out to be 40. Also, the “viable persister cells (CFU/mL) vs DMSO control” value in [13] is “significant reduction of viable cells”. Also, the “secretome (secreted proteins) vs DMSO” value in the series on S. aureus NCTC8325 was “SpsB substrates are secreted; also recorded: strong increase of extracellular proteins”.
